Experimental data published in patent publication US20040068014A1 (priority 2001, published 2004).
Blank lines part the entries; values can stand above or below the compound they belong to.

How the values were obtained:
[1] = system: Diclofenac sodium-induced stomach ulcer; assay: Administering time of Ornoprostil and suppression of Diclofenac sodium-induced stomach ulcer; assay type: in vivo, rat; conditions: for Antiulcer coefficient: inhibition ratio/incidence rate; for Incidence rate of ulcer (Number of Examples): rat oral
[2] = system: diarrhea; assay: Inducing effect of diarrhea (rats, oral administration)
[3] = system: glycerol-induced nephropathy; assay: Glycerol-induced nephropathy; assay type: in vivo, rat; conditions: serum 48 hours after glycerol
Description: After weighing SPF/Crj strain maleness rats (9 weeks of ages), they were so divided that average weight of each group might almost be equal. At 48 hours after 50% glycerol (10 ml/kg) (medium: physiological salt solution) was subcutaneously administered to rats deprived water for 48 hours (±2 hour) on […], about 1.5 ml of blood was gathered from the jugular under ether anesthesia. […] Water was supplied to them 2 hour later from administration of glycerol. Those serums were obtained by centrifugal separation (for about 4° C., 3000 rpm, for 15 minutes) of the gathered blood. Urea nitrogen (abbreviated as UN.) (urease·GIDH method) and creatinine (abbreviated as CRE.) (Creatininase·F-DAOS method) in the obtained serum were measured with the biochemistry automated analyzer (AU400 (trade name), Olympus Optical Co., Ltd.).

[4] = OU 0 minutes before Di administering
[5] = OU 5 minutes after Di administering
[6] = OU 5 minutes before Di administering
[7] = OU 10 minutes after Di administering
[8] = OU 10 minutes before Di administering
[9] = OU 30 minutes after Di administering
[10] = OU 30 minutes before Di administering
[11] = OU 60 minutes after Di administering
[12] = OU 60 minutes before Di administering
[13] = GC (subcutis) + OU (10 μg) oral

Compound: CCCC[C@H](C)C[C@H](O)/C=C/[C@H]1[C@H](O)CC(=O)[C@@H]1CC(=O)CCCCC(=O)OC [Ornoprostil, 17S, 20-dimethyl-6-keto PGE1 methyl ester]
Antiulcer coefficient [1, 4]: 86.9
Incidence rate of ulcer (Number of Examples) [1, 4]: 7/8
Antiulcer coefficient [1, 5]: 7.1
Incidence rate of ulcer (Number of Examples) [1, 5]: 7/8
Antiulcer coefficient [1, 6]: 100.9
Incidence rate of ulcer (Number of Examples) [1, 6]: 6/8
Antiulcer coefficient [1, 7]: 28.8
Incidence rate of ulcer (Number of Examples) [1, 7]: 8/8
Antiulcer coefficient [1, 8]: 125.1
Incidence rate of ulcer (Number of Examples) [1, 8]: 5/8
Antiulcer coefficient [1, 9]: 16.1
Incidence rate of ulcer (Number of Examples) [1, 9]: 7/8
Antiulcer coefficient [1, 10]: 56.2
Incidence rate of ulcer (Number of Examples) [1, 10]: 7/8
Antiulcer coefficient [1, 11]: 4.1
Incidence rate of ulcer (Number of Examples) [1, 11]: 6/8
Antiulcer coefficient [1, 12]: 97.3
Incidence rate of ulcer (Number of Examples) [1, 12]: 7/8
Dose which generates induced effect of diarrhea [2]: ≥ 0.4 mg/kg
CRE (serum creatinine) ([3]; GC (subcutis) + OU (3 μg) oral): 1.38 mg/dL
UN (serum urea nitrogen) ([3]; GC (subcutis) + OU (3 μg) oral): 89.7 mg/dL
CRE (serum creatinine) [3, 13]: 1.03 mg/dL
UN (serum urea nitrogen) [3, 13]: 79.9 mg/dL

Number of animals which cause diarrhea/number of laboratory animals ([2]; 50 μg/kg): 0/5
Number of animals which cause diarrhea/number of laboratory animals ([2]; 100 μg/kg): 1/5
Compound: 15-deoxy-16-hydroxy-16-methyl-PGE1 methyl ester [Misoprostol]
